This is an account of results in publication PMC11173618, “C2-Symmetrical Terphenyl Derivatives as Small Molecule Inhibitors of Programmed Cell Death 1/Programmed Death Ligand 1 Protein–Protein Interaction” (Molecules, 2024).

This experiment addresses T1, PD-1/PD-L1 complex (Homo sapiens, UniProt Q9NZQ7).
T1 construct: purchased cis-bio
Description: HTRF assay of PD-1/PD-L1 complex inhibition (cis-bio kit). It is filed as binding. To be noted: for inhibition at 0.5 µM / inhibition at 5 µM: 1 h, scouting mode, 5 nM PD-L1, 50 nM PD-1, read-out: HTRF [%] (percentage of dissociated PD-1/PD-L1 complex); for inhibition at 0.5 µM: inhibitor 0.5 µM; for inhibition at 5 µM: inhibitor 5 µM. As for the experimental part: All synthesized molecules were tested in the homogeneous time-resolved fluorescence (HTRF) assay to assess their activity as inhibitors of the PD-1/PD-L1 complex (Table 1, Table 2 and Table 3). This evaluation was conducted in scouting modes, employing concentrations of 5 μM and 0.5 μM. Based on the obtained measurements, the IC50 values were estimated for each tested compound.
The certified cis-bio assay kit was used to perform the HTRF assay. Following the standard protocol, the measurement was carried out at a 20 µL final volume with a 5 nM concentration of PD-L1 and a 50 nM concentration of PD-1 in the final formulation. […] The plate was incubated for 1 h and then read on an HTRF-certified Tecan Spark 20M microplate reader. Output data were subjected to background subtraction on negative control (without PD-1) and normalization in correlation to the positive control (without inhibitor) and were then averaged. The resulting data points were then fitted with Hill’s equation to generate IC50 using Mathematica 12. […]

T1 sequence (Q9NZQ7 19-238 limits assumed, one chain of several): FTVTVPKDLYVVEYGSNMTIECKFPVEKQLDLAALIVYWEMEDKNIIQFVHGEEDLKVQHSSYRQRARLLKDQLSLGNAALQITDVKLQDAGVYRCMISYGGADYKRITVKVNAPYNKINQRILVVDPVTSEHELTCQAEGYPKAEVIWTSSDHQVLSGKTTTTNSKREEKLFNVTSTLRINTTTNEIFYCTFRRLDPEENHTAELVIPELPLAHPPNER

Regarding `CC(=O)NCCNCc1cccc(OCc2cccc(-c3cc(C)cc(-c4cccc(COc5cccc(CNCCNC(C)=O)c5)c4)c3)c2)c1` [Compound 4a, N,N’-(((((((5′-methyl-[1,1′:3′,1′′-terphenyl]-3,3′′-diyl)bis(methylene))bis(oxy))bis(3,1-phenylene))bis(methylene))bis(azanediyl))bis(ethane-2,1-diyl))diacetamide], the inhibition at 0.5 µM turned out to be 80.4 ± 18.8% and the inhibition at 5 µM was 56.8 ± 15.4%.

For `CC(=O)NCCNCc1cccc(OCc2cccc(-c3cc(C)cc(-c4cccc(COc5cccc(CNCCNC(C)=O)c5Br)c4)c3)c2)c1Br` [Compound 4c, N,N’-(((((((5′-methyl-[1,1′:3′,1′′-terphenyl]-3,3′′-diyl)bis(methylene))bis(oxy))bis(2-bromo-3,1-phenylene))bis(methylene))bis(azanediyl))bis(ethane-2,1-diyl))diacetamide], the inhibition at 0.5 µM amounted to 88.6 ± 14% and the inhibition at 5 µM amounted to 70.8 ± 18.8%.

With `CC(=O)NCCNCc1cccc(OCc2cccc(-c3cc(C)cc(-c4cccc(COc5cccc(CNCCNC(C)=O)c5)c4F)c3)c2F)c1` [Compound 4d, N,N’-(((((((2,2′′-difluoro-5′-methyl-[1,1′:3′,1′′-terphenyl]-3,3′′-diyl)bis(methylene))bis(oxy))bis(3,1-phenylene))bis(methylene))bis(azanediyl))bis(ethane-2,1-diyl))diacetamide], the inhibition at 0.5 µM was 89.9 ± 19.8% and the inhibition at 5 µM came out at 22.5 ± 9.17%.

Consider `CC(=O)NCCNCc1cccc(OCc2cccc(-c3cc(C)cc(-c4cccc(COc5cccc(CNCCNC(C)=O)c5Br)c4C)c3)c2C)c1Br` [Compound 4e, N,N’-(((((((2,2′′,5′-trimethyl-[1,1′:3′,1′′-terphenyl]-3,3′′-diyl)bis(methylene))bis(oxy))bis(2-bromo-3,1-phenylene))bis(methylene))bis(azanediyl))bis(ethane-2,1-diyl))diacetamide], for which the inhibition at 0.5 µM was found to be 93.9 ± 5.5% and the inhibition at 5 µM is 94.2 ± 2.3%. Moreover, where the note is “estimated from scouting data (5 and 0.5 µM) by translation of the Hill fit of 7b, 7j, 7m”, the “IC50 Estimated” value was “not active”.

Consider `CC(=O)NCCNCc1cc(F)c(OCc2cccc(-c3cc(C)cc(-c4cccc(COc5cc(F)c(CNCCNC(C)=O)cc5F)c4C)c3)c2C)cc1F` [Compound 4f, N,N’-(((((((2,2′′,5′-trimethyl-[1,1′:3′,1′′-terphenyl]-3,3′′-diyl)bis(methylene))bis(oxy))bis(2,5-difluoro-4,1-phenylene))bis(methylene))bis(azanediyl))bis(ethane-2,1-diyl))diacetamide], for which the inhibition at 0.5 µM was found to be 85.7 ± 10.9% and the inhibition at 5 µM was 28.2 ± 1.5%.

For `COc1cccc(CNCCNC(C)=O)c1OCc1ccccc1-c1cc(C)cc(-c2ccccc2COc2c(CNCCNC(C)=O)cccc2OC)c1` [Compound 5a, N,N’-(((((((5′-methyl-[1,1′:3′,1′′-terphenyl]-2,2′′-diyl)bis(methylene))bis(oxy))bis(3-methoxy-2,1-phenylene))bis(methylene))bis(azanediyl))bis(ethane-2,1-diyl))diacetamide], the inhibition at 0.5 µM worked out at 84.3 ± 13.1% and the inhibition at 5 µM amounted to 78.4 ± 6.4%.

On to `COc1cc(-c2cc(C)cc(-c3ccc(COc4c(CNCCNC(C)=O)cccc4OC)c(OC)c3)c2)ccc1COc1c(CNCCNC(C)=O)cccc1OC` [Compound 6a, N,N’-(((((((3,3′′-dimethoxy-5′-methyl-[1,1′:3′,1′′-terphenyl]-4,4′′-diyl)bis(methylene))bis(oxy))bis(3-methoxy-2,1-phenylene))bis(methylene))bis(azanediyl))bis(ethane-2,1-diyl))diacetamide], for which the inhibition at 0.5 µM was determined as 86.1 ± 4.5% and the inhibition at 5 µM was found to be 59.2 ± 2.6%.

In the case of `COc1cc(-c2cccc(-c3ccc(COc4ccc(CNCCNC(C)=O)cc4OC)c(OC)c3)c2C)ccc1COc1ccc(CNCCNC(C)=O)cc1OC` [Compound 7a, N,N’-(((((((3,3′′-dimethoxy-2′-methyl-[1,1′:3′,1′′-terphenyl]-4,4′′-diyl)bis(methylene))bis(oxy))bis(3-methoxy-4,1-phenylene))bis(methylene))bis(azanediyl))bis(ethane-2,1-diyl))diacetamide], the inhibition at 0.5 µM was determined as 72.5 ± 8.1% and the inhibition at 5 µM amounted to 23.8 ± 0.3%.

As for `COc1cc(-c2cccc(-c3ccc(COc4ccc(CNCCO)cc4OC)c(OC)c3)c2C)ccc1COc1ccc(CNCCO)cc1OC` [Compound 7b, 2,2′-((((((3,3′′-dimethoxy-2′-methyl-[1,1′:3′,1′′-terphenyl]-4,4′′-diyl)bis(methylene))bis(oxy))bis(3-methoxy-4,1-phenylene))bis(methylene))bis(azanediyl))bis(ethan-1-ol)], the inhibition at 0.5 µM was determined as 60.9 ± 3.9% and the inhibition at 5 µM was 11.9 ± 1%.

For the compound `COc1cc(CNCCNC(C)=O)ccc1OCc1ccc(-c2cccc(-c3ccc(COc4ccc(CNCCNC(C)=O)cc4OC)cc3C)c2C)c(C)c1` [Compound 7c, N,N’-(((((((2,2′,2′′-trimethyl-[1,1′:3′,1′′-terphenyl]-4,4′′-diyl)bis(methylene))bis(oxy))bis(3-methoxy-4,1-phenylene))bis(methylene))bis(azanediyl))bis(ethane-2,1-diyl))diacetamide], the inhibition at 0.5 µM was determined as 82.1 ± 8% and the inhibition at 5 µM was 77.1 ± 0.7%.

For `COc1cc(CNCCO)ccc1OCc1ccc(-c2cccc(-c3ccc(COc4ccc(CNCCO)cc4OC)cc3C)c2C)c(C)c1` [Compound 7d, 2,2′-((((((2,2′,2′′-trimethyl-[1,1′:3′,1′′-terphenyl]-4,4′′-diyl)bis(methylene))bis(oxy))bis(3-methoxy-4,1-phenylene))bis(methylene))bis(azanediyl))bis(ethan-1-ol)], the inhibition at 0.5 µM came out at 86.1 ± 12.7% and the inhibition at 5 µM is 35.7 ± 3.3%.

Turning to `COc1cc(CNCCNC(C)=O)ccc1OCc1ccc(-c2cccc(-c3ccc(COc4ccc(CNCCNC(C)=O)cc4OC)c(C)c3)c2C)cc1C` [Compound 7e, N,N’-(((((((2′,3,3′′-trimethyl-[1,1′:3′,1′′-terphenyl]-4,4′′-diyl)bis(methylene))bis(oxy))bis(3-methoxy-4,1-phenylene))bis(methylene))bis(azanediyl))bis(ethane-2,1-diyl))diacetamide], the inhibition at 0.5 µM is 93.8 ± 3.6% and the inhibition at 5 µM is 55.3 ± 13.4%.

For the compound `COc1cc(CNCCO)ccc1OCc1ccc(-c2cccc(-c3ccc(COc4ccc(CNCCO)cc4OC)c(C)c3)c2C)cc1C` [Compound 7f, 2,2′-((((((2′,3,3′′-trimethyl-[1,1′:3′,1′′-terphenyl]-4,4′′-diyl)bis(methylene))bis(oxy))bis(3-methoxy-4,1-phenylene))bis(methylene))bis(azanediyl))bis(ethan-1-ol)], the inhibition at 0.5 µM came to 93.1 ± 17.4% and the inhibition at 5 µM was 46.4 ± 9.6%.

Regarding `COc1cc(CNC(CO)CO)ccc1OCc1ccc(-c2cccc(-c3ccc(COc4ccc(CNC(CO)CO)cc4OC)c(C)c3)c2C)cc1C` [Compound 7g, 2,2′-((((((2′,3,3′′-trimethyl-[1,1′:3′,1′′-terphenyl]-4,4′′-diyl)bis(methylene))bis(oxy))bis(3-methoxy-4,1-phenylene))bis(methylene))bis(azanediyl))bis(propane-1,3-diol)], the inhibition at 0.5 µM stood at 94.5 ± 18.1% and the inhibition at 5 µM came out at 53.7 ± 1.7%.

`CC(=O)NCCNCc1cc(F)c(OCc2ccc(-c3cccc(-c4ccc(COc5cc(F)c(CNCCNC(C)=O)cc5F)c(C)c4)c3C)cc2C)cc1F` [Compound 7h, N,N’-(((((((2′,3,3′′-trimethyl-[1,1′:3′,1′′-terphenyl]-4,4′′-diyl)bis(methylene))bis(oxy))bis(2,5-difluoro-4,1-phenylene))bis(methylene))bis(azanediyl))bis(ethane-2,1-diyl))diacetamide]: the inhibition at 0.5 µM stood at 84.1 ± 26.4% and the inhibition at 5 µM stood at 69 ± 0.9%.

For the compound `Cc1cc(-c2cccc(-c3ccc(COc4cc(F)c(CNCCO)cc4F)c(C)c3)c2C)ccc1COc1cc(F)c(CNCCO)cc1F` [Compound 7i, 2,2′-((((((2′,3,3′′-trimethyl-[1,1′:3′,1′′-terphenyl]-4,4′′-diyl)bis(methylene))bis(oxy))bis(2,5-difluoro-4,1-phenylene))bis(methylene))bis(azanediyl))bis(ethan-1-ol)], the inhibition at 0.5 µM came out at 78.5 ± 7.3% and the inhibition at 5 µM was found to be 42.2 ± 7.2%.

Take `CC(=O)NCCNCc1cccc(OCc2ccc(-c3cccc(-c4ccc(COc5cccc(CNCCNC(C)=O)c5Br)cc4)c3C)cc2)c1Br` [Compound 7j, N,N’-(((((((2′-methyl-[1,1′:3′,1′′-terphenyl]-4,4′′-diyl)bis(methylene))bis(oxy))bis(2-bromo-3,1-phenylene))bis(methylene))bis(azanediyl))bis(ethane-2,1-diyl))diacetamide]: the inhibition at 0.5 µM was 40.4 ± 1.5% and the inhibition at 5 µM amounted to 11.1 ± 0.3%.

With `Cc1c(-c2cccc(COc3cccc(CNCCO)c3Br)c2)cccc1-c1cccc(COc2cccc(CNCCO)c2Br)c1` [Compound 8a, 2,2′-((((((2′-methyl-[1,1′:3′,1′′-terphenyl]-3,3′′-diyl)bis(methylene))bis(oxy))bis(2-bromo-3,1-phenylene))bis(methylene))bis(azanediyl))bis(ethan-1-ol)], the inhibition at 0.5 µM turned out to be 94.6 ± 0.1% and the inhibition at 5 µM came to 23 ± 0.1%.
